Here are results for ten compounds from paper PMC9026082, “Madecassic Acid—A New Scaffold for Highly Cytotoxic Agents” (International Journal of Molecular Sciences, 2022).

For data set [1], the system named is HeLa (cervical carcinoma). Kind of data set: SRB cytotoxicity assay, HeLa. The class given is cell-based, human. The conditions noted are these: 72 h of treatment, cut-off 30 μM. The source says: (§1) To assess their cytotoxicity parent, triterpenoic acids 1–3, their acetates 4–6, the amides 7–18, as well as the respective rhodamine B conjugates 19–24 were subjected to SRB assays employing several human tumor cell lines (A375, HT29, MCF-7, A2780, and HeLa) as well as non-malignant fibroblasts (NIH 3T3).
(§2) A detailed description of materials and methods can be found in the Supplementary Materials File. For biological screening, the cell lines were obtained from ATCC: A375 (CRL-1619), HT29 (HTB-38), MCF7 (HTP-22), A2780 (HTP-77), HeLa (CCL-2), and NIH 3T3 (CRL-1573) ^13C NMR spectra (Supplementary Materials) were recorded as APT spectra showing CH and CH3 groups as positive signals and CH2 groups and quaternary carbons as negative signals. […]
(§3) 2. Cytotoxicity assay (SRB assay)
(§4) The cell lines were obtained from Department of oncology (Martin-Luther-University Halle Wittenberg). Cultures were maintained as monolayers in RPMI 1640 medium with L-glutamine (Capricorn Scientific GmbH, Ebsdorfergrund, Germany) supplemented with 10% heat inactivated fetal bovine serum (Sigma -Aldrich Chemie GmbH, Steinheim, Germany) and penicillin/streptomycin (1%, Capricorn Scientific GmbH, Ebsdorfergrund, Germany) at 37 °C in a humidified atmosphere with 5% CO 2.
(§5) The cytotoxicity of the compounds was eva luated using the sulforhodamine -B (Kiton-Red S, ABCR) micro culture colorimetric assay using […] in 96 -well plates with the seeding of the cells on day 0 applying appropriate cell densities to prevent confluence of the cells during the period of the experiment. On day 1, the cells were treated with six di fferent concentrations (1, 3, 7, 12, 20 and 30 μM); thereby, the final concentration of DMSO was always < 0.5%, generally regarded as non-toxic to the cells. On day 4, the supernatant medium was discarded; the cells were fixed with 10 % trichloroacetic acid. After another day at 4 °C, the cells were washed in a strip washer and dyed with the SRB solution (100 μL, 0.4% in 1% acetic acid) for about 20 min to be followed by washing of the plates (four times, 1% acetic acid) and air -drying […]
(§6) overnight. Furthermore, tris base solution (200 μL, 10 mM) was added to each well and absorbance was measured at λ = 570 nm employing a reader (96 wells, Tecan Spectra, Crailsheim, Germany). The EC50 values were averaged from three independent experiments performed each in triplicate calculated from semi logarithmic dose response curves applying a non-linear four-parameter Hills-slope equation (GraphPad Prism5; variables top and bottom were set to 100 and 0, respectively).

Another data set relates to A375 (melanoma). Kind of data set: SRB cytotoxicity assay, A375. The conditions noted are these: 72 h of treatment, cut-off 30 μM. The class given is cell-based, human.
Excerpt: as §1, §2, §3, §4, §5, §6

The subject of data set [2] is MCF7 (breast adenocarcinoma). Kind of data set: SRB cytotoxicity assay, MCF7. The class given is cell-based, human. The conditions noted are these: cut-off 30 μM.
Excerpt: as §1, §2, §3, §4, §5, §6

Data set [3] relates to HT29 (colorectal carcinoma). Kind of data set: SRB cytotoxicity assay, HT29. The class given is cell-based, human. The conditions noted are these: cut-off 30 μM.
Excerpt: as §1, §2, §3, §4, §5, §6

Data set [4] deals with several human tumor cell lines (A375, HT29, MCF-7, A2780, and HeLa). The data set is described as follows: SRB assays, cell line not given. The conditions noted are these: cell line not stated; for EC50: Homo sapiens, SRB assays, lowest value of the series, read-out: EC50 values as low as (analogs of madecassic acid). The class given is cell-based.
Excerpt: To assess their cytotoxicity parent, triterpenoic acids 1–3, their acetates 4–6, the amides 7–18, as well as the respective rhodamine B conjugates 19–24 were subjected to SRB assays employing several human tumor cell lines (A375, HT29, MCF-7, A2780, and HeLa) as well as non-malignant fibroblasts (NIH 3T3). […]
as §3, §4, §5, §6

Data set [5] concerns NIH 3T3 (non-malignant fibroblasts). The data set is described as follows: SRB cytotoxicity assay, NIH 3T3. The conditions noted are these: cut-off 30 μM. The class given is cell-based.
Excerpt: as §1, §2, §3, §4, §5, §6

The test system of data set [6] is A2780 (ovarian carcinoma). Kind of data set: SRB cytotoxicity assay, A2780. The class given is cell-based, human. The conditions noted are these: for EC50: SRB assay, 72 h of treatment, cut-off 30 μM.
Excerpt: as §1, §2, §3, §4, §5, §6

The subject of a further data set is A375 cells. The data set is described as follows: Staining experiments (acridine orange, rhodamine 123, Hoechst 33,342). The conditions noted are these: 48 h, same area as rhodamine 123, not in nucleus (Hoechst 33,342). The class given is cell-based, human. The protocol: The mode of action—as previously shown for several triterpene-rhodamine B conjugates—is to act as mitocans. […] Thereby, Hoechst 33,342 binds selectively to DNA while rhodamine 123 is usually applied for dying mitochondria.
Figure 1 Staining experiments: A375 cells, 48 h; (A): control; (B): in the presence of 24; (C): Hoechst 33,342 staining; (D): merged (Hoechst 33,342, control); and (E): in the presence of rhodamine 123.

Where [7] appears, read: Homo sapiens, MCF7, 72 h of treatment.
Setting [8] is: Homo sapiens, HT-29, 72 h of treatment.
[9] abbreviates: Mus musculus, NIH3T3, 72 h of treatment.

Where only a bound is given, the exact number is not on record here.

Take `CC(=O)O[C@H]1CC[C@]2(C)[C@H]3CC=C4[C@@H]5CC(C)(C)CC[C@]5(C(=O)O)CC[C@@]4(C)[C@]3(C)CC[C@H]2[C@]1(C)C=O` [Compound 4, (3β,4α) 3-(Acetyloxy)-23-oxoolean-12-en-28-oic Acid]: the EC50 in [1] (Homo sapiens, HeLa) is greater than 30 µM; with A375 (melanoma) (Homo sapiens, A-375, 72 h), greater than 30 µM; in [2] (setting [7]) it was 24.6 ± 4.7 µM; in [3] (setting [8]) it was greater than 30 µM.
As to `C[C@H]1[C@H](C)CC[C@]2(C(=O)O)CC[C@]3(C)C(=CC[C@@H]4[C@@]5(C)C[C@@H](O)[C@H](O)[C@@](C)(CO)[C@@H]5[C@H](O)C[C@]43C)[C@H]12` [Compound 3, Madecassic Acid], the EC50 in [4] is no less than 0.015 µM; in [5] (setting [9]), greater than 30 µM; with A375 (melanoma) (Homo sapiens, A-375, 72 h), greater than 30 µM; in [2] (setting [7]), greater than 30 µM; in [6] (Homo sapiens, A2780) it was greater than 30 µM; in data set [3] (setting [8]), greater than 30 µM.
Consider “(3β,4α) 3-Hydroxy-23-oxoolean-12-en-28-oic Acid [Compound 1]”, for which the EC50 is 25 ± 4.1 µM in [1]; 16.7 ± 2.8 µM in [5] (72 h of treatment); 17.3 ± 1.6 µM with A375 (melanoma); 18.5 ± 2.2 µM in data set [2] (72 h of treatment); 13 ± 1.6 µM in data set [6]; greater than 30 µM in data set [3] (72 h of treatment).
In the case of `CCN(CC)c1ccc2c(-c3ccccc3C(=O)N3CCCN(C(=O)[C@]45CC[C@@H](C)[C@H](C)[C@H]4C4=CC[C@@H]6[C@@]7(C)C[C@@H](OC(C)=O)[C@H](OC(C)=O)[C@@](C)(COC(C)=O)[C@@H]7[C@H](O)C[C@@]6(C)[C@]4(C)CC5)CC3)c3ccc(=[N+](CC)CC)cc-3oc2c1` [Compound 24, N-{6-Diethylamino-9-[2-({4[ (2α,3β,4α,6β)-2,3,23-tris(acetyloxy)-6-hydroxy-28-oxours-12-en-28-yl)-1,4-diazepan-1-yl}carbonyl]phenyl]-3H-xanthen-3-ylidene)-N-ethylethanaminium Chloride], the EC50 in data set [1] (Homo sapiens, HeLa) was determined as 0.0526 ± 0.0151 µM; in data set [5] (setting [9]) it was 0.101 ± 0.0231 µM; with A375 (melanoma) (Homo sapiens, A-375, 72 h), 0.0095 ± 0.0015 µM; in data set [2] (setting [7]) it was 0.0162 ± 0.0045 µM; in data set [6] (Homo sapiens, A2780) it was 0.0029 ± 0.0005 µM; in data set [3] (setting [8]) it was 0.0127 ± 0.0038 µM. For the same compound, the results for the “times more cytotoxic than parent madecassic acid” value in data set [4] and in data set [6] (A2780 ovarian cancer cells) were ~10,000 times and “more than 10,000 times”, respectively. Moreover, in the data set with A375 cells, the “mode of action / localization within the cells” value is given as “acts as a mitocan”.
Compound `CC(=O)OC[C@@]1(C)[C@@H]2[C@H](O)C[C@]3(C)[C@H](CC=C4[C@@H]5[C@@H](C)[C@H](C)CC[C@]5(C(=O)NCc5ccccc5)CC[C@]43C)[C@@]2(C)C[C@@H](OC(C)=O)[C@@H]1OC(C)=O` [Compound 15, (2α,3β,4α,6β) 2,3,23-Tris(acetyloxy)-N-(benzyl)-6-hydroxyurs-12-en-28-amide] displayed a melting point of 90 to 95 °C. Moreover, the EC50 in data set [4] was no less than 0.015 µM. The EC50 in [5] (setting [9]) is 17.9 ± 2.1 µM. A half-maximal response in the data set with A375 (melanoma) (Homo sapiens, A-375, 72 h) (EC50) required 1 ± 0.1 µM. The EC50 in [2] (setting [7]) came out at 2.7 ± 0.4 µM. The compound further yielded an EC50 in data set [6] (Homo sapiens, A2780) of 1.4 ± 0.1 µM. Further, the EC50 in data set [3] (setting [8]) worked out at 2.3 ± 0.2 µM.
`CC(=O)OC[C@@]1(C)[C@@H]2[C@H](O)C[C@]3(C)[C@H](CC=C4[C@@H]5[C@@H](C)[C@H](C)CC[C@]5(C(=O)Nc5ccccc5)CC[C@]43C)[C@@]2(C)C[C@@H](OC(C)=O)[C@@H]1OC(C)=O` [Compound 16, (2α,3β,4α,6β) 2,3,23-Tris(acetyloxy)-N-(phenyl)-6-hydroxyurs-12-en-28-amide] showed a melting point of 135 to 139 °C. Also, the EC50 in [4] was no less than 0.015 µM. In data set [5] (setting [9]), this compound yielded an EC50 of 21.1 ± 1.1 µM. In the data set on A375 (melanoma) (Homo sapiens, A-375, 72 h), this compound registered an EC50 of 1.3 ± 0.1 µM. In data set [2] (setting [7]), the EC50 is 4.5 ± 0.9 µM. Besides, in data set [6] (Homo sapiens, A2780), a half-maximal effect (EC50) was put at 2.2 ± 0.1 µM. In data set [3] (setting [8]), this compound had an EC50 of 3.7 ± 0.4 µM.
As for `CCN(CC)c1ccc2c(-c3ccccc3C(=O)N3CCN(C(=O)[C@]45CC[C@@H](C)[C@H](C)[C@H]4C4=CC[C@@H]6[C@@]7(C)C[C@@H](OC(C)=O)[C@H](OC(C)=O)[C@@](C)(COC(C)=O)[C@@H]7[C@H](O)C[C@@]6(C)[C@]4(C)CC5)CC3)c3ccc(=[N+](CC)CC)cc-3oc2c1` [Compound 23, N-{6-Diethylamino-9-[2-({4[ (2α,3β,4α,6β)-2,3,23-tris(acetyloxy)-6-hydroxy-28-oxours-12-en-28-yl)-1-piperazinyl]carbonyl]phenyl]-3H-xanthen-3-ylidene)-N-ethylethanaminium Chloride], the EC50 is no less than 0.015 µM in data set [4]; 0.277 ± 0.03 µM in data set [5] (setting [9]); 0.055 ± 0.01 µM with A375 (melanoma) (Homo sapiens, A-375, 72 h); 0.054 ± 0.01 µM in data set [2] (setting [7]); 0.015 ± 0.001 µM in [6] (Homo sapiens, A2780); 0.108 ± 0.02 µM in [3] (setting [8]).
In the case of `CC1(C)CC[C@]2(C(=O)O)CC[C@]3(C)C(=CC[C@@H]4[C@@]5(C)CC[C@H](O)[C@@](C)(CO)[C@@H]5CC[C@]43C)[C@@H]2C1` [Compound 2, (3β,4α) 3,23-Dihydroxyolean-12-en-28-oic Acid], the EC50 in data set [1] (Homo sapiens, HeLa) was greater than 30 µM; in data set [5] (setting [9]) it was greater than 30 µM; in the data set with A375 (melanoma) (Homo sapiens, A-375, 72 h), 26.3 ± 1.8 µM; in [2] (setting [7]), 25.7 ± 1.9 µM; in [6] (Homo sapiens, A2780), 19.6 ± 1.6 µM; in [3] (setting [8]), greater than 30 µM.
For `CC(=O)OC[C@@]1(C)[C@@H]2[C@H](O)C[C@]3(C)[C@H](CC=C4[C@@H]5[C@@H](C)[C@H](C)CC[C@]5(C(=O)O)CC[C@]43C)[C@@]2(C)C[C@@H](OC(C)=O)[C@@H]1OC(C)=O` [Compound 6, (2α,3β,4α,6β) 2,3,23-Tris(acetyloxy)-6-hydroxyurs-12-en-28-oic Acid], the EC50 in data set [4] is no less than 0.015 µM; in data set [5] (setting [9]), 7.6 ± 0.8 µM; in the data set with A375 (melanoma) (Homo sapiens, A-375, 72 h) it was 3.5 ± 0.5 µM; in data set [2] (setting [7]), 7.1 ± 0.6 µM; in data set [6] (Homo sapiens, A2780), 8.1 ± 0.7 µM; in data set [3] (setting [8]), 14.5 ± 1.1 µM.
`CC(=O)OC[C@@]1(C)[C@@H]2CC[C@]3(C)[C@H](CC=C4[C@@H]5CC(C)(C)CC[C@]5(C(=O)O)CC[C@]43C)[C@@]2(C)CC[C@@H]1OC(C)=O` [Compound 5, (3β,4α) 3,23-Bis(acetyloxy)olean-12-en-28-oic Acid] had a melting point of 185 to 189 °C. In addition, the EC50 in data set [1] (Homo sapiens, HeLa) was 12.4 ± 0.7 µM. Besides, a half-maximal response in [5] (setting [9]) (EC50) required 9.6 ± 0.6 µM. In the data set on A375 (melanoma) (Homo sapiens, A-375, 72 h), the response was half-maximal at 17.1 ± 1.1 µM (EC50). The EC50 in data set [2] (setting [7]) was determined as 9.8 ± 1 µM. Besides, the EC50 in [6] (Homo sapiens, A2780) turned out to be 11.9 ± 0.5 µM. The same compound displayed an EC50 in data set [3] (setting [8]) of 19 ± 0.6 µM.
